Columns and labels:
Type in all cases: functional
[1] = test system: UO-31; experiment: Cytotoxicity against Homo sapiens (human) UO31 cells assessed as growth inhibition at 10 uM after 48 hr by coulter counter analysis; settings: UO-31, 48 h, read-out: GI
[2] = test system: TK-10; experiment: Cytotoxicity against Homo sapiens (human) TK10 cells assessed as growth inhibition at 10 uM after 48 hr by coulter counter analysis; settings: TK-10, 48 h, read-out: GI
[3] = test system: SN12C; experiment: Cytotoxicity against Homo sapiens (human) SN12C cells assessed as growth inhibition at 10 uM after 48 hr by coulter counter analysis; settings: read-out: GI
[4] = test system: RXF 393; experiment: Cytotoxicity against Homo sapiens (human) RXF393 cells assessed as growth inhibition at 10 uM after 48 hr by coulter counter analysis; settings: RXF 393, 48 h, read-out: GI
[5] = test system: CAKI-1; experiment: Cytotoxicity against Homo sapiens (human) Caki1 cells assessed as growth inhibition at 10 uM after 48 hr by coulter counter analysis; settings: CAKI-1, 48 h, read-out: GI
[6] = test system: ACHN; experiment: Cytotoxicity against Homo sapiens (human) ACHN cells assessed as growth inhibition at 10 uM after 48 hr by coulter counter analysis; settings: read-out: GI
[7] = test system: A498; experiment: Cytotoxicity against Homo sapiens (human) A498 cells assessed as growth inhibition at 10 uM after 48 hr by coulter counter analysis; settings: A498, 48 h, read-out: GI
[8] = test system: MDA-MB-468; experiment: Cytotoxicity against Homo sapiens (human) MDA-MB-468 cells assessed as growth inhibition at 10 uM after 48 hr by coulter counter analysis; settings: MDA-MB-468, 48 h, read-out: GI
[9] = test system: MCF7; experiment: Cytotoxicity against Homo sapiens (human) MCF7 cells assessed as growth inhibition at 10 uM after 48 hr by coulter counter analysis; settings: MCF7, 48 h, read-out: GI
[10] = test system: DU-145; experiment: Cytotoxicity against Homo sapiens (human) DU145 cells assessed as growth inhibition at 10 uM after 48 hr by coulter counter analysis; settings: DU-145, 48 h, read-out: GI
[11] = test system: PC-3; experiment: Cytotoxicity against Homo sapiens (human) PC3 cells assessed as growth inhibition at 10 uM after 48 hr by coulter counter analysis; settings: PC-3, 48 h, read-out: GI
[12] = test system: SK-MEL-28; experiment: Cytotoxicity against Homo sapiens (human) SK-MEL-28 cells assessed as growth inhibition at 10 uM after 48 hr by coulter counter analysis; settings: SK-MEL-28, 48 h, read-out: GI
[13] = test system: M14; experiment: Cytotoxicity against Homo sapiens (human) M14 cells assessed as growth inhibition at 10 uM after 48 hr by coulter counter analysis; settings: M14, 48 h, read-out: GI
[14] = test system: LOX IMVI; experiment: Cytotoxicity against Homo sapiens (human) LOXIMVI cells assessed as growth inhibition at 10 uM after 48 hr by coulter counter analysis; settings: read-out: GI
[15] = test system: U-251; experiment: Cytotoxicity against Homo sapiens (human) U251 cells assessed as growth inhibition at 10 uM after 48 hr by coulter counter analysis; settings: U-251, 48 h, read-out: GI
[16] = test system: SNB-75; experiment: Cytotoxicity against Homo sapiens (human) SNB75 cells assessed as growth inhibition at 10 uM after 48 hr by coulter counter analysis; settings: SNB-75, 48 h, read-out: GI
[17] = test system: SF-539; experiment: Cytotoxicity against Homo sapiens (human) SF539 cells assessed as growth inhibition at 10 uM after 48 hr by coulter counter analysis; settings: SF-539, 48 h, read-out: GI
[18] = test system: SF-268; experiment: Cytotoxicity against Homo sapiens (human) SF268 cells assessed as growth inhibition at 10 uM after 48 hr by coulter counter analysis; settings: SF-268, 48 h, read-out: GI
[19] = test system: KM12; experiment: Cytotoxicity against Homo sapiens (human) KM12 cells assessed as growth inhibition at 10 uM after 48 hr by coulter counter analysis; settings: KM12, 48 h, read-out: GI
[20] = test system: HT-29; experiment: Cytotoxicity against Homo sapiens (human) HT-29 cells assessed as growth inhibition at 10 uM after 48 hr by coulter counter analysis; settings: HT-29, 48 h, read-out: GI
[21] = test system: HCT-15; experiment: Cytotoxicity against Homo sapiens (human) HCT15 cells assessed as growth inhibition at 10 uM after 48 hr by coulter counter analysis; settings: HCT-15, 48 h, read-out: GI
[22] = test system: HCC 2998; experiment: Cytotoxicity against Homo sapiens (human) HCC2998 cells assessed as growth inhibition at 10 uM after 48 hr by coulter counter analysis; settings: HCC 2998, 48 h, read-out: GI
[23] = Cytotoxicity against Homo sapiens (human) NCI-ADR-RES cells assessed as growth inhibition at 10 uM after 48 hr by coulter counter analysis; settings: read-out: GI
[24] = test system: OVCAR-8; experiment: Cytotoxicity against Homo sapiens (human) OVCAR8 cells assessed as growth inhibition at 10 uM after 48 hr by coulter counter analysis; settings: OVCAR-8, 48 h, read-out: GI
[25] = test system: OVCAR-5; experiment: Cytotoxicity against Homo sapiens (human) OVCAR5 cells assessed as growth inhibition at 10 uM after 48 hr by coulter counter analysis; settings: OVCAR-5, 48 h, read-out: GI
[26] = test system: OVCAR-4; experiment: Cytotoxicity against Homo sapiens (human) OVCAR4 cells assessed as growth inhibition at 10 uM after 48 hr by coulter counter analysis; settings: OVCAR-4, 48 h, read-out: GI
[27] = test system: OVCAR-3; experiment: Cytotoxicity against Homo sapiens (human) OVCAR3 cells assessed as growth inhibition at 10 uM after 48 hr by coulter counter analysis; settings: OVCAR-3, 48 h, read-out: GI
[28] = test system: UACC-62; experiment: Cytotoxicity against Homo sapiens (human) UACC62 cells assessed as growth inhibition at 10 uM after 48 hr by coulter counter analysis; settings: UACC-62, 48 h, read-out: GI
[29] = test system: SK-MEL-5; experiment: Cytotoxicity against Homo sapiens (human) SK-MEL-5 cells assessed as growth inhibition at 10 uM after 48 hr by coulter counter analysis; settings: SK-MEL-5, 48 h, read-out: GI
[30] = test system: COLO 205; experiment: Cytotoxicity against Homo sapiens (human) COLO205 cells assessed as growth inhibition at 10 uM after 48 hr by coulter counter analysis; settings: COLO 205, 48 h, read-out: GI
[31] = test system: NCI-H322M; experiment: Cytotoxicity against Homo sapiens (human) NCI-H322M cells assessed as growth inhibition at 10 uM after 48 hr by coulter counter analysis; settings: read-out: GI
[32] = test system: NCI-H23; experiment: Cytotoxicity against Homo sapiens (human) NCI-H23 cells assessed as growth inhibition at 10 uM after 48 hr by coulter counter analysis; settings: NCI-H23, 48 h, read-out: GI
[33] = test system: EKVX; experiment: Cytotoxicity against Homo sapiens (human) EKVX cells assessed as growth inhibition at 10 uM after 48 hr by coulter counter analysis; settings: read-out: GI
[34] = test system: A549; experiment: Cytotoxicity against Homo sapiens (human) A549 cells assessed as growth inhibition at 10 uM after 48 hr by coulter counter analysis; settings: A549, 48 h, read-out: GI

SMILES	inhibition of growth at 10 µM [1] [%]	inhibition of growth at 10 µM [2] [%]	inhibition of growth at 10 µM [3] [%]	inhibition of growth at 10 µM [4] [%]	inhibition of growth at 10 µM [5] [%]	inhibition of growth at 10 µM [6] [%]	inhibition of growth at 10 µM [7] [%]	inhibition of growth at 10 µM [8] [%]	inhibition of growth at 10 µM [9] [%]	inhibition of growth at 10 µM [10] [%]	inhibition of growth at 10 µM [11] [%]	inhibition of growth at 10 µM [12] [%]	inhibition of growth at 10 µM [13] [%]	inhibition of growth at 10 µM [14] [%]	inhibition of growth at 10 µM [15] [%]	inhibition of growth at 10 µM [16] [%]	inhibition of growth at 10 µM [17] [%]	inhibition of growth at 10 µM [18] [%]	inhibition of growth at 10 µM [19] [%]	inhibition of growth at 10 µM [20] [%]	other results
O=c1c2ccccc2[nH]c(=S)n1CCc1ccccc1	33	< 10	< 10	< 10	< 10	< 10	46	22	31	< 10	13	< 10	< 10	< 10	< 10	< 10	< 10	< 10	< 10	< 10	inhibition of growth at 10 µM [21]: < 10%; inhibition of growth at 10 µM [22]: < 10%; inhibition of growth at 10 µM [23]: < 10%; inhibition of growth at 10 µM [24]: < 10%; inhibition of growth at 10 µM [25]: < 10%; inhibition of growth at 10 µM [26]: < 10%; inhibition of growth at 10 µM [27]: < 10%; inhibition of growth at 10 µM [28]: 20%; inhibition of growth at 10 µM [29]: 13%; inhibition of growth at 10 µM [30]: < 10%; inhibition of growth at 10 µM [31]: < 10%; inhibition of growth at 10 µM [32]: < 10%; inhibition of growth at 10 µM [33]: 18%; inhibition of growth at 10 µM [34]: < 10%
O=C(CSc1nc2ccccc2c(=O)n1CCc1ccccc1)c1ccccc1	22	< 10	< 10	< 10	22	< 10	46	14	< 10	< 10	14	< 10	< 10	< 10	11	18	< 10	< 10	< 10	< 10	inhibition of growth at 10 µM [21]: < 10%; inhibition of growth at 10 µM [22]: < 10%; inhibition of growth at 10 µM [23]: < 10%; inhibition of growth at 10 µM [24]: 15%; inhibition of growth at 10 µM [25]: < 10%; inhibition of growth at 10 µM [26]: < 10%; inhibition of growth at 10 µM [27]: < 10%; inhibition of growth at 10 µM [28]: 16%; inhibition of growth at 10 µM [29]: < 10%; inhibition of growth at 10 µM [30]: < 10%; inhibition of growth at 10 µM [31]: < 10%; inhibition of growth at 10 µM [32]: < 10%; inhibition of growth at 10 µM [33]: 18%; inhibition of growth at 10 µM [34]: 18%
CCn1c(S)nnc1CSc1nc2ccccc2c(=O)n1CCc1ccccc1	24	< 10	< 10	< 10	< 10	15	< 10	15	16	< 10	17	< 10	12	26	< 10	< 10	< 10	< 10	< 10	< 10	inhibition of growth at 10 µM [21]: 12%; inhibition of growth at 10 µM [22]: < 10%; inhibition of growth at 10 µM [23]: 27%; inhibition of growth at 10 µM [24]: 11%; inhibition of growth at 10 µM [25]: < 10%; inhibition of growth at 10 µM [26]: 15%; inhibition of growth at 10 µM [27]: < 10%; inhibition of growth at 10 µM [28]: 15%; inhibition of growth at 10 µM [29]: 18%; inhibition of growth at 10 µM [30]: < 10%; inhibition of growth at 10 µM [31]: 27%; inhibition of growth at 10 µM [32]: < 10%; inhibition of growth at 10 µM [33]: 15%; inhibition of growth at 10 µM [34]: 16%
